The target of this experiment is human insulin (hINS) (Homo sapiens, UniProt P01308). In words: isothermal titration calorimetry. It is filed as binding.

Broadly, the Kd is the concentration at which binding is half-saturated.

Chain of human insulin (hINS) (P01308 25-54): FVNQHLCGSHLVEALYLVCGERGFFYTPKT
Chain of human insulin (hINS) (P01308 90-110): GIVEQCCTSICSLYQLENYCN

Take `Oc1ccc(/C=C/c2cc(O)cc(O)c2)cc1` [resveratrol, trans-3,4,5-trihydroxystilbene]: binding was put at a Kd of 12.8 µM.

Values taken from doi:10.1101/611376v1 (biorxiv, 2019).
